Measured values published in ChEMBL document CHEMBL5120922, “Discovery, Optimization, and Evaluation of Potent and Selective PI3Kδ-γ Dual Inhibitors for the Treatment of B-cell Malignancies” (J Med Chem, 2022).

Columns and labels:
DOHH-2 [1] = experiment: Antiproliferative activity against human DOHH-2 cells assessed as cell growth inhibition measured after 72 hrs by MTT assay; type: functional, cell-based; conditions: DOHH-2, 72 h
SU-DHL-6 [2] = experiment: Antiproliferative activity against human SU-DHL-6 cells assessed as cell growth inhibition measured after 72 hrs by MTT assay; type: functional, cell-based; conditions: SU-DHL-6, 72 h
SUD4 = experiment: Antiproliferative activity against human SU-DHL-4 cells assessed as cell growth inhibition measured after 72 hrs by MTT assay; type: functional, cell-based; conditions: SU-DHL-4, 72 h
[3] = target: T1, Phosphatidylinositol 4,5-bisphosphate 3-kinase catalytic subunit gamma isoform (Homo sapiens, UniProt P48736); experiment: Inhibition of N-terminal His6-tagged recombinant full length human PI3Kgamma expressed in baculovirus infected Sf21 insect cells incubated for 30 mins by HTRF assay
Target sequence in this assay (P48736 whole entry, canonical isoform): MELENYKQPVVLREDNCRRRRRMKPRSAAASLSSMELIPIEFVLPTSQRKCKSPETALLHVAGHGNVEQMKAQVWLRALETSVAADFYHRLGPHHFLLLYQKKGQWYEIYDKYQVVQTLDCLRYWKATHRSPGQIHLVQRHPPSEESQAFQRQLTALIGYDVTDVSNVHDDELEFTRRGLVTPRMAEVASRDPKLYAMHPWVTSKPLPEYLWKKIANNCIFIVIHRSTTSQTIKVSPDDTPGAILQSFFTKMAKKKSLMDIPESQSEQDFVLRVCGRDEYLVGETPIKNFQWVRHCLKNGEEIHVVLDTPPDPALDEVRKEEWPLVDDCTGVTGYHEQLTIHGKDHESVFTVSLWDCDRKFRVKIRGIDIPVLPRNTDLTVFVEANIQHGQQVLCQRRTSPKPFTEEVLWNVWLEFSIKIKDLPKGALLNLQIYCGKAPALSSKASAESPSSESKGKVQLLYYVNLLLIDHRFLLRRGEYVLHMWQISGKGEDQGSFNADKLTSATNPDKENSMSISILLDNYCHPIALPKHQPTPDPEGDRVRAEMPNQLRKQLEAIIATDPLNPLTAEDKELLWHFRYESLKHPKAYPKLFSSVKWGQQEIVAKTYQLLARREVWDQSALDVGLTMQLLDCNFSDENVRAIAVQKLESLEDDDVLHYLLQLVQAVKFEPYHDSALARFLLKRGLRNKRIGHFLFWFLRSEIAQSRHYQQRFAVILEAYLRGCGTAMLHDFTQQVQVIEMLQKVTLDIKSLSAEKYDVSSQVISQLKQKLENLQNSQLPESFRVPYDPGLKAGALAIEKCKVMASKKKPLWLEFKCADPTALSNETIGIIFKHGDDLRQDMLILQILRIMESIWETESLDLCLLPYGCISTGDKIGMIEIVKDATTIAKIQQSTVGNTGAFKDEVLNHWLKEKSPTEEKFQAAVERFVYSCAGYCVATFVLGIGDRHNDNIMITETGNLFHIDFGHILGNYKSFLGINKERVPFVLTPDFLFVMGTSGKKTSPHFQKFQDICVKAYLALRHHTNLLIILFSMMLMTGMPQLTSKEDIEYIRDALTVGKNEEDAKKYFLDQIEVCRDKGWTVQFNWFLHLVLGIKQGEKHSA

[4] = target: T2, Phosphatidylinositol 4,5-bisphosphate 3-kinase catalytic subunit delta isoform (Homo sapiens, UniProt O00329); experiment: Inhibition of N-terminal His6-tagged recombinant full length human PI3Kdelta expressed in baculovirus infected Sf21 insect cells incubated for 30 mins by HTRF assay
T2 sequence (O00329 whole entry): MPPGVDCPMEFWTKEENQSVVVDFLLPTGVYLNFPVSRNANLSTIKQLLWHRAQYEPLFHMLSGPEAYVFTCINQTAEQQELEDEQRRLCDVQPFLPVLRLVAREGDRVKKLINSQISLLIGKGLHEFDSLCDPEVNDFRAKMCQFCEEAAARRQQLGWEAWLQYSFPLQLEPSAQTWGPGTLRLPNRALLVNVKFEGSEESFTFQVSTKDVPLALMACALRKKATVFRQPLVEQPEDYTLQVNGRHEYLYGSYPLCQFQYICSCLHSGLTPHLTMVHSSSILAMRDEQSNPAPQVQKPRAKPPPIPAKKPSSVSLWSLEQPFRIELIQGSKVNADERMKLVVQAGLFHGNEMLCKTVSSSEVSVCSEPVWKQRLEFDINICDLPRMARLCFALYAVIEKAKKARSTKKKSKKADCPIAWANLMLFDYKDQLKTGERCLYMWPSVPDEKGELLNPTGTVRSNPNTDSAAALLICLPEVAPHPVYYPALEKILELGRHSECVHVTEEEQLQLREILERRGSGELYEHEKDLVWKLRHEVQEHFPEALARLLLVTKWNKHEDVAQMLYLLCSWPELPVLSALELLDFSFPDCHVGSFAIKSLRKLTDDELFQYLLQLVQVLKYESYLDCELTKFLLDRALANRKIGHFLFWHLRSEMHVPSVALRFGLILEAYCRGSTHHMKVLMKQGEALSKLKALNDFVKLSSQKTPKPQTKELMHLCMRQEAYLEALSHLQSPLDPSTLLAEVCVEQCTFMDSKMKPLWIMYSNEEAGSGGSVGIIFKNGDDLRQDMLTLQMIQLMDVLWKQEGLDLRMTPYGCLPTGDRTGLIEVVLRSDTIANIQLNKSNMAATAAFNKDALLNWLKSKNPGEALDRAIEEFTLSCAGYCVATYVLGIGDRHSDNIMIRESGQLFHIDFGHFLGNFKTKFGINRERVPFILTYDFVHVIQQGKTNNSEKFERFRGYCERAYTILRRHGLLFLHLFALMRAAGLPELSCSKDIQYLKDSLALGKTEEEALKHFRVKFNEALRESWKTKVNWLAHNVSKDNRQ

[5] = target: T3, Phosphatidylinositol 4,5-bisphosphate 3-kinase catalytic subunit alpha isoform (Homo sapiens, UniProt P42336); experiment: Inhibition of N-terminal His6-tagged recombinant full length human PI3Kalpha expressed in baculovirus infected Sf21 insect cells incubated for 30 mins by HTRF assay
T3 sequence (P42336 whole entry, canonical isoform): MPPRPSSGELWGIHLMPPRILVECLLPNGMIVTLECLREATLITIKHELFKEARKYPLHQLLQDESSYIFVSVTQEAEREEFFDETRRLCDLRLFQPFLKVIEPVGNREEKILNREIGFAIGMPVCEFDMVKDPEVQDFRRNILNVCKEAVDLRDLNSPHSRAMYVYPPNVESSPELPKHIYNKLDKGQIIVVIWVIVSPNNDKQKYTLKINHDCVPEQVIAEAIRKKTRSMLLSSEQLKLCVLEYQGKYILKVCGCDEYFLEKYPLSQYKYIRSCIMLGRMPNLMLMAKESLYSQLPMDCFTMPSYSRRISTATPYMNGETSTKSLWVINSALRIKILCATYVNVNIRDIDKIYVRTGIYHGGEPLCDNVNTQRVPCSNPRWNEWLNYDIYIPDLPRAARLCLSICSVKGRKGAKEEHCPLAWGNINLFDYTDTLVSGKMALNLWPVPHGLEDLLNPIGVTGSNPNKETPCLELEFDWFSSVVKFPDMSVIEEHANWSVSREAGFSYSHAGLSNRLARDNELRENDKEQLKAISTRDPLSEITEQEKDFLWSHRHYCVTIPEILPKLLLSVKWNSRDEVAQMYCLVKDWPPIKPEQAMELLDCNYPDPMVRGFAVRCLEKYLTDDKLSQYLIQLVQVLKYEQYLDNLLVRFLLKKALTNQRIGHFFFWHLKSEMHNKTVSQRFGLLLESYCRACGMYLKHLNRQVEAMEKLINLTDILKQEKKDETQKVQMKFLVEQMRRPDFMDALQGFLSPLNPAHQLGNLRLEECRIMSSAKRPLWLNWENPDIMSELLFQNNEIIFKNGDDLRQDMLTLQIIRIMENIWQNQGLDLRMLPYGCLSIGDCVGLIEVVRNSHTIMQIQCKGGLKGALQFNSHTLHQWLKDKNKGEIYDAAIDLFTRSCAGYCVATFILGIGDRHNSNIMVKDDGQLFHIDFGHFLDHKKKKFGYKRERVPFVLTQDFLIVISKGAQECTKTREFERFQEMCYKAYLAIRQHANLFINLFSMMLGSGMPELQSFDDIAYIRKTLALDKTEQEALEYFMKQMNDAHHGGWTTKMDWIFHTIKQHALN

[6] = target: T4, Phosphatidylinositol 4,5-bisphosphate 3-kinase catalytic subunit beta isoform (Homo sapiens, UniProt P42338); experiment: Inhibition of N-terminal His6-tagged recombinant full length human PI3Kbeta expressed in baculovirus infected Sf21 insect cells incubated for 30 mins by HTRF assay
Target sequence in this assay (P42338 whole entry, canonical isoform): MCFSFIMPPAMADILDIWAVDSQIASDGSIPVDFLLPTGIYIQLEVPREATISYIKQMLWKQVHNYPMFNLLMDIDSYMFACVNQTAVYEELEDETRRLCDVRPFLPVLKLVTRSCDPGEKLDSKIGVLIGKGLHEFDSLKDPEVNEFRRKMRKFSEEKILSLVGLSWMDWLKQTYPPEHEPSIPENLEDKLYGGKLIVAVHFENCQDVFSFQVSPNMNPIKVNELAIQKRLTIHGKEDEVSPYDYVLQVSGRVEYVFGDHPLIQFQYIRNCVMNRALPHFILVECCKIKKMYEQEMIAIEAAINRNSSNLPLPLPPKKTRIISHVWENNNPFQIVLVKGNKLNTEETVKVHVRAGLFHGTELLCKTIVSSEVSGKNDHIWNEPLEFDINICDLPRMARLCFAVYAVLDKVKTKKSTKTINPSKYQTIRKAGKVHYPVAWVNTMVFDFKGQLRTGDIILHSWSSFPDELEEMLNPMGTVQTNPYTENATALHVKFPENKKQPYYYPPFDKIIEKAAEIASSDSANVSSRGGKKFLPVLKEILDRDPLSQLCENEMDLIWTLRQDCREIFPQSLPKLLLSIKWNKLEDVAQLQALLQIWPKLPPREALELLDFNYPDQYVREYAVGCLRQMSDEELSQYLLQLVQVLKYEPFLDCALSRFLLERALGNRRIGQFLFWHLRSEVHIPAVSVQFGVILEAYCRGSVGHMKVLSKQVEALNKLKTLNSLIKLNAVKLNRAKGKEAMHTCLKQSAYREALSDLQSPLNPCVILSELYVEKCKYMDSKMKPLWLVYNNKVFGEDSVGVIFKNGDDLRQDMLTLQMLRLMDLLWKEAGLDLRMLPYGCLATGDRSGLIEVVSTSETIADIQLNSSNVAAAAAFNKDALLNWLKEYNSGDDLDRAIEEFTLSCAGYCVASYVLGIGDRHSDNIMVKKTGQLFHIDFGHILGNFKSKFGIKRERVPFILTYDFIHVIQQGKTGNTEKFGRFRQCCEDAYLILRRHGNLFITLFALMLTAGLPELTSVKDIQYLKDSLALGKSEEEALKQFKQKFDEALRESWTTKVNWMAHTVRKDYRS

SU-DHL-6 [7] = experiment: Induction of cell cycle arrest in human SU-DHL-6 cells assessed as accumulation of cells at G0/G1 phase at 0.5 uM incubated for 24 hrs by PI staining based FACScan flow cytometry analysis (reference value: 55.61 %); type: functional
SU-DHL-6 [8] = experiment: Induction of cell cycle arrest in human SU-DHL-6 cells assessed as accumulation of cells at S phase at 0.5 uM incubated for 24 hrs by PI staining based FACScan flow cytometry analysis (reference value: 24.18 %); type: functional
SU-DHL-6 [9] = experiment: Induction of cell cycle arrest in human SU-DHL-6 cells assessed as accumulation of cells at G2/M phase at 0.5 uM incubated for 24 hrs by PI staining based FACScan flow cytometry analysis (reference value: 20.21 %); type: functional
DOHH-2 [10] = experiment: Induction of cell cycle arrest in human DOHH-2 cells assessed as accumulation of cells at G0/G1 phase at 1 uM incubated for 24 hrs by PI staining based flow cytometry analysis (reference value: 23.47 %); type: functional
DOHH-2 [11] = experiment: Induction of cell cycle arrest in human DOHH-2 cells assessed as accumulation of cells at S phase at 1 uM incubated for 24 hrs by PI staining based flow cytometry analysis (reference value: 55.11 %); type: functional
DOHH-2 [12] = experiment: Induction of cell cycle arrest in human DOHH-2 cells assessed as accumulation of cells at G2/M phase at 1 uM incubated for 24 hrs by PI staining based flow cytometry analysis (reference value: 21.42 %); type: functional
SU-DHL-6 [13] = experiment: Induction of apoptosis in human SU-DHL-6 cells assessed as viable cells at 1.5 uM incubated for 48 hrs by annexin V-FITC and PI staining based flow cytometry analysis (reference value: 87.0 %); type: functional; conditions: read-out: Activity
SU-DHL-6 [14] = experiment: Induction of apoptosis in human SU-DHL-6 cells assessed as early apoptotic cells at 1.5 uM incubated for 48 hrs by annexin V-FITC and PI staining based flow cytometry analysis (reference value: 8.81 %); type: functional
SU-DHL-6 [15] = experiment: Induction of apoptosis in human SU-DHL-6 cells assessed as late apoptotic cells at 1.5 uM incubated for 48 hrs by annexin V-FITC and PI staining based flow cytometry analysis (reference value: 3.88 %); type: functional
SU-DHL-6 [16] = experiment: Induction of apoptosis in human SU-DHL-6 cells assessed as necrotic cells at 1.5 uM incubated for 48 hrs by annexin V-FITC and PI staining based flow cytometry analysis (reference value: 0.32%); type: functional
DOHH-2 [17] = experiment: Induction of apoptosis in human DOHH-2 cells assessed as viable cells at 1 uM incubated for 48 hrs by annexin V-FITC and PI staining based flow cytometry analysis (reference value: 95.4 %); type: functional; conditions: read-out: Activity
DOHH-2 [18] = experiment: Induction of apoptosis in human DOHH-2 cells assessed as early apoptotic cells at 1 uM incubated for 48 hrs by annexin V-FITC and PI staining based flow cytometry analysis (reference value: 2.09 %); type: functional
DOHH-2 [19] = experiment: Induction of apoptosis in human DOHH-2 cells assessed as late apoptotic cells at 1 uM incubated for 48 hrs by annexin V-FITC and PI staining based flow cytometry analysis (reference value: 2.20 %); type: functional
DOHH-2 [20] = experiment: Induction of apoptosis in human DOHH-2 cells assessed as necrotic cells at 1 uM incubated for 48 hrs by annexin V-FITC and PI staining based flow cytometry analysis (Rvb =0.29 %); type: functional
[21] = target: T1, Phosphatidylinositol 4,5-bisphosphate 3-kinase catalytic subunit gamma isoform; experiment: Inhibition of N-terminal His6-tagged recombinant full length human PI3Kgamma expressed in baculovirus infected Sf21 insect cells at 0.1 uM by HTRF assay relative to control
Target sequence in this assay (P48736 whole entry, looked up, canonical isoform): as the sequence (P48736 whole entry, canonical isoform) above

[22] = target: T1, Phosphatidylinositol 4,5-bisphosphate 3-kinase catalytic subunit gamma isoform; experiment: Inhibition of N-terminal His6-tagged recombinant full length human PI3Kgamma expressed in baculovirus infected Sf21 insect cells at 1 uM by HTRF assay relative to control
Target sequence in this assay (P48736 whole entry, looked up, canonical isoform): as the sequence (P48736 whole entry, canonical isoform) above

[23] = target: T5, Phosphatidylinositol 4,5-bisphosphate 3-kinase catalytic subunit delta isoform (Homo sapiens) (UniProt O00329); experiment: Inhibition of N-terminal His6-tagged recombinant full length human PI3Kdelta expressed in baculovirus infected Sf21 insect cells at 1 uM by HTRF assay relative to control
T5 sequence (whole entry): T2 sequence (O00329 whole entry)

[24] = target: T5, Phosphatidylinositol 4,5-bisphosphate 3-kinase catalytic subunit delta isoform (Homo sapiens); experiment: Inhibition of N-terminal His6-tagged recombinant full length human PI3Kdelta expressed in baculovirus infected Sf21 insect cells at 0.1 uM by HTRF assay relative to control
[25] = target: T3, Phosphatidylinositol 4,5-bisphosphate 3-kinase catalytic subunit alpha isoform; experiment: Inhibition of N-terminal His6-tagged recombinant full length human PI3Kalpha expressed in baculovirus infected Sf21 insect cells at 1 uM by HTRF assay relative to control
[26] = target: T4, Phosphatidylinositol 4,5-bisphosphate 3-kinase catalytic subunit beta isoform; experiment: Inhibition of N-terminal His6-tagged recombinant full length human PI3Kbeta expressed in baculovirus infected Sf21 insect cells at 1 uM by HTRF assay relative to control
Target sequence in this assay (P42338 whole entry, looked up, canonical isoform): as the sequence (P42338 whole entry, canonical isoform) above

[27] = Metabolic stability in human liver microsomes assessed as clearance at 1 uM measured upto 60 mins in presence of NADPH by measuring protein; type: ADME, Microsome; conditions: 1 h
[28] = Metabolic stability in human liver microsomes assessed as half life at 1 uM measured upto 60 mins in presence of NADPH; type: ADME, Microsome
[29] = Metabolic stability in human liver microsomes assessed as compound remaining at 1 uM measured upto 60 mins in presence of NADPH; type: ADME, Microsome; conditions: read-out: Stability

| SMILES | IC50 (DOHH-2 [1]) | IC50 (SU-DHL-6 [2]) | IC50 (SUD4) | IC50 [3] | IC50 [4] | IC50 [5] | IC50 [6] | further results |
| --- | --- | --- | --- | --- | --- | --- | --- | --- |
| C[C@H]1CC[C@@H](c2nc3cccc(Cl)c3c(=O)n2-c2cccc(F)c2)N1c1nc(N)nc(N)c1C#N | 500 nM | 190 nM | 90 nM | 17 µM | 2 µM | 258 µM | 412 µM | – |
| C[C@H]1CC[C@@H](c2nc3c(F)cc(F)cc3c(=O)n2-c2cccnc2)N1c1nc(N)nc(N)c1C#N | 470 nM | 180 nM | 160 nM | 30 µM | 3 µM | 374 µM | 445 µM | – |
| C=CC(=O)N1CCC[C@@H](n2nc(-c3ccc(Oc4ccccc4)cc3)c3c(N)ncnc32)C1 [IBRUTINIB] | – | – | – | – | – | – | – | Activity (SU-DHL-6 [7]): 58.11%; Activity (SU-DHL-6 [8]): 29.85%; Activity (SU-DHL-6 [9]): 12.04%; Activity (DOHH-2 [10]): 46.69%; Activity (DOHH-2 [11]): 40.49%; Activity (DOHH-2 [12]): 13.92%; viability at 1.5 µM (SU-DHL-6 [13]): 86.1%; Activity (SU-DHL-6 [14]): 9.9%; Activity (SU-DHL-6 [15]): 4.62%; Activity (SU-DHL-6 [16]): 0.15%; viability at 1 µM (DOHH-2 [17]): 79.9%; Activity (DOHH-2 [18]): 8.69%; Activity (DOHH-2 [19]): 10.7%; Activity (DOHH-2 [20]): 0.7% |
| N#Cc1c(N)nc(N)nc1N1[C@H](c2nc3cccc(F)c3c(=O)n2-c2cccnc2)C[C@@H]2CCCC[C@@H]21 | 2570 nM | 1100 nM | 1120 nM | 364 µM | 42 µM | 3120 µM | 1550 µM | – |
| C[C@H]1CC[C@@H](c2nc3cccc(Cl)c3c(=O)n2-c2ccccc2)N1c1nc(N)nc(N)c1C#N | 820 nM | 110 nM | 120 nM | – | – | – | – | inhibition [21]: 24%; inhibition [22]: -3%; inhibition [23]: -1%; inhibition [24]: -7%; inhibition [25]: 13%; inhibition [26]: 45%; CLH [27]: 13 mL/min/g; half-life at 1 µM [28]: 107 min; remaining at 1 h, 1 µM [29]: 67.9% |
| COc1cncc(-c2cccc3nc([C@@H]4CC[C@H](C)N4c4nc(N)nc(N)c4C#N)n(-c4cccc(F)c4)c(=O)c23)c1 | 520 nM | 110 nM | 430 nM | 9 µM | 0.6 µM | 22 µM | 429 µM | – |
| N#Cc1c(N)nc(N)nc1N1[C@H](c2nc3cccc(Cl)c3c(=O)n2-c2cccc(F)c2)C[C@@H]2CCCC[C@@H]21 | 2800 nM | 1610 nM | 1300 nM | 280 µM | 28 µM | – | – | – |
| N#Cc1c(N)nc(N)nc1N1[C@H](c2nc3cccc(Cl)c3c(=O)n2N2CCOCC2)C[C@@H]2CCCC[C@@H]21 | 3860 nM | 1340 nM | 1040 nM | 312 µM | 41 µM | – | – | – |
